# Experimental data from patent US11078188B2, “Dihydroquinoxaline bromodomain recognition protein inhibitor, preparation method and use thereof” (SHANGHAI INSTITUTE OF MATERIA MEDICA, CHINESE ACADEMY OF …, priority 2017, dated 2021).
# Tests used:
# BRD4 (I) = BRD4 (I) (Homo sapiens (Human), UniProt O60885); assay: Fluorescence anisotropy (FA) binding test on BRD4 (I); settings: BRD4 (I) 10 nM, fluorescent (+)-JQ1 substrate 5 nM, read-out: BRD4 (1) IC50
# Protocol: The binding activity of the compound to BRD4 (I) was tested using a fluorescence anisotropy (FA) method. The principle of FA test is to calculate and analyze the fluorescence polarization values in the horizontal and vertical directions by detecting the change of molecular weight before and after the interaction of fluorescein-labeled small molecules with other molecules. If the equilibrium of the binding between the fluorescently labeled small molecule and macromolecule is established, it will move slowly when excited, and the measured fluorescence polarization value will increase. If the binding between the fluorescently labeled small molecule and the macromolecule is replaced by another ligand, its rotation or flipping speed in the free state will be faster, and the emitted light will be depolarized relative to the plane of the excitation light, and the measured polarized light value will decrease to calculate the fluorescence anisotropy of the sample.
# Expression and purification of the BRD4(I) recognition domain: colonies of newly transformed plasmid DNA from E. coli BL21(DE3)-condon plus-RIL cells were cultivated in 50 mL of Terrific Broth medium containing 50 μg/mL kanamycin and 34 μg/mL chloramphenicol at 37° C. overnight (starting culture). The starting culture was then diluted 100-fold in 1 L of fresh TB medium and the cells were grown at 37° C. to an optical density of about 0.8 at OD600 and then the temperature was lowered to 16° C. When the system was equilibrated at 16° C., the optical density at OD600 was approximately 1.2, and protein expression was induced with 0.2 mmol of isopropyl-β-D-thiogalactopyranoside (IPTG) overnight at 16° C. Bacteria were harvested by centrifugation (4000×g, 20 minutes, 4° C.) and stored as a pellet at −80° C. The cells expressing His 6-tagged protein was resuspend in lysis buffer [50 mmol 4-hydroxyethylpiperazineethanesulfonic acid (HEPES), 25° C., pH 7.5, 500 mmol NaCl, 10 mmol imidazole, 5% glycerol and freshly added 0.5 mmol of tris(2-carboxyethyl)phosphine hydrochloride (TCEP) and 1 mmol of phenylmethanesulfonyl fluoride (PMSF)] and lysed at 4° C. using JN 3000PLUS high pressure homogenizer (JNBIO-Guangzhou, China). The lysate was clarified by centrifugation (12,000×g for 1 hour at 4° C.) and applied to a nickel-nitriloacetate agarose column. The column was washed once with 50 mL of wash buffer containing 30 mmol of imidazole. The protein was eluted using imidazole in an elution buffer in a stepwise elution (100-250 mmol imidazole in 50 mmol HEPES, 25° C., pH 7.5, 500 mmol NaCl, 5% glycerol). All fractions were collected and monitored by SDS-polyacrylamide gel electrophoresis (Bio-Rad Criterion TM Precast Gels, 4-12% Bis-Tris, 1.0 mm, from Bio-Rad, CA). After 1 mmol of dithiothreitol (DTT) was added, the eluted proteins were treated with tobacco […] virus (TEV) protease overnight at 4° C. to remove the His6 tag. The protein was concentrated and further purified by size exclusion chromatography on a Superdex 75 16/60 HiLoad gel filtration column. The samples were monitored by SDS-polyacrylamide gel electrophoresis and concentrated to 8-10 mg/mL with gel filtration buffer, 10 mmol Hepes pH 7.5, 500 mM NaCl, 1 mmol DTT, and used for protein binding assays and crystallization.
# The fluorogenic substrate was (+)-JQ1 linked to a fluorescent molecule and the working concentration was 5 nM. BRD4 (I) protein had 10 nM of working concentration and the total reaction system was 40 μL. The buffer was 50 mM 4-hydroxyethylpiperazineethanesulfonic acid (HEPES) pH 7.4, 150 mM NaCl, 0.5 mM 3[(3-cholamidopropyl)dimethylammonio]propanesulfonate (CHAPS). […] The final concentration of DMSO was chosen to be 0.2%, taking into account the solubility of the compound and the effect of DMSO on the assay. All measurements were made under these conditions. […]
# [1] = test system: human myeloma cells MM.1S; assay: MM.1S cell viability, CCK-8 method; format: cell-based; settings: for IC50: 72 h treatment, CCK-8; for inhibitory activity against the MM.1S cell line (in words): compared with positive (+)-JQ1
# Protocol: The MM.1S cell line was tested for cell viability. The test methods were as follows: human myeloma cells MM.1S were treated with compound for 72 h, and the proliferation inhibition effect and degree of the compound were detected by CCK-8 method.
# CYP enzyme = assay: Mechanistic inhibition test (TDI test); format: in vitro ADME; settings: human liver microsomes 0.2 mg/ml; mechanism inhibition if kobs greater than 200
# Protocol: The system which was 200 μl of human liver microsomes (final concentration: 0.2 mg/ml) was used for mechanistic inhibition incubation. The system contained 10 μl compound, mixed positive inhibitor (Troleandomycin 10 μl, Paroxetine 10 μl, Tienilic acid 10 μM, Furafylline 10 μl) or 10 μl negative control PRO. After NADPH (final concentration: 1 mM) or PBS was added, the system was incubated for 0 min, 5 min, 10 min and 30 min, then NADPH (final concentration: 1 mM) and mixed probe substrate (Midazolam 5 μM, Testosterone 50 μl, Dextromethophan 5 μM, Diclofenac 10 μl, Phenacetin 5 0 μM, S-(+)-mephenytoin 50 μl) were added and incubated for 10 min. Then the reaction was stopped. The test for positive inhibitor CYP2C19 was carried out alone, the inhibitor S-(+)-fluoxetine was 100 μM. The enzyme activity was calculated by measuring the relative production amount of metabolite. kobs was calculated.
# (§1) HLM Clint (μl/min/mg) refers to the clearance rate of compounds in human liver microsomes having a unit of μl/min/mg; mLM Clint (μl/min/mg) refers to the clearance rate of compounds in mouse liver microsomes having a unit of μl/min/mg; HLM t1/2 (min) refers to the half-life of the compound in human liver microsomes having a unit of minutes; mLM t1/2 (min) refers to the half-life of the compound in mouse liver microsomes having a unit of minutes. TDI means that the mechanism inhibition test of compounds on CYP enzyme evaluates whether the compound has time-dependent inhibition of the enzyme.
# [2] = Metabolic stability in human liver microsomes; format: in vitro ADME; settings: human liver microsomes 0.5 mg/ml, 1 μM compound, NADPH
# Protocol: The system which was 150 μl of human liver microsomes (final concentration: 0.5 mg/ml) was used for metabolic stability incubation. The system contained reduced coenzyme II (NADPH) (final concentration: 1 mM) and 1 μM compound, positive control or negative control. The reaction was terminated with acetonitrile containing (imiprozine, batch number: 3221; tinidazole, given) at 0 min, 5 min, 10 min, and 30 min, respectively. The mixture was vortexed for 10 min, centrifuged at 15000 rpm for 10 min, and 50 μl of the supernatant was injected into a 96-well plate. The metabolic stability of the compound was calculated by measuring the relative reduction in the original medicament.
# as §1
# [3] = Metabolic stability in mouse liver microsomes; format: in vitro ADME
Structure (SMILES),IC50 (BRD4 (I)),IC50 [1],inhibitory activity against the MM.1S cell line (in words) [1],TDI (CYP enzyme),HLM Clint [2],HLM t1/2 [2],MLM t1/2 [3],mLM Clint [3],"IC50 ([1]; Homo sapiens, MM1.S)",microsomal CLint at 1 μM ([2]; read-out: HLM Clint),half-life at 1 μM ([2]; read-out: HLM t1/2),half-life at 1 μM ([3]; read-out: half-lives in mouse liver microsomes),microsomal CLint at 1 μM ([3]; read-out: mLM Clint)
Cc1ccc(-n2nc(C(=O)N3CCN(C)CC3)nc2-c2ccc3c(c2)N(C2CCCC2)[C@H](C)C(=O)N3C)cc1 [Example 6],6.5 nM,13.6 ± 5.45 nM,better inhibitory activity against the MM.1S cell line than the positive (+)-JQ1,no,61 µL/min/mg,23 min,41 min,34 µL/min/mg,,,,,
Cc1ccc(-n2nc(C(=O)N3C[C@@H](C)N[C@@H](C)C3)nc2-c2ccc3c(c2)N(C2CCCC2)[C@H](C)C(=O)N3C)cc1 [Example 12],4.9 nM,,better inhibitory activity against the MM.1S cell line than the positive (+)-JQ1,no,,,,,5.42 ± 1.14 nM,52 µL/min/mg,27 min,193 min,7 µL/min/mg
